Values of other authors as cited in patent US7473787B2, “Bicyclic [3.1.0] derivatives as glycine transporter inhibitors” (Pfizer Inc, priority 2003, dated 2009).

Test system: NMDA receptor
Conditions: effect blocked by a specific NMDA-site antagonist and a glycine-site antagonist

Question: For `CN(CCC(Oc1ccc(-c2ccccc2)cc1)c1ccc(F)cc1)CC(=O)O` (stereo not shown) [NFPS], which “effect on postsynaptic current driven by the NMDA receptor” value is on record?
Answer: The value was “increased the postsynaptic current”.
